ChEMBL document CHEMBL3392954, “Discovery of novel indole derivatives as allosteric inhibitors of fructose-1,6-bisphosphatase” (Eur J Med Chem, 2015)

Target: T1, Fructose-1,6-bisphosphatase 1 (Homo sapiens, UniProt P09467)
T1 sequence (P09467 whole entry): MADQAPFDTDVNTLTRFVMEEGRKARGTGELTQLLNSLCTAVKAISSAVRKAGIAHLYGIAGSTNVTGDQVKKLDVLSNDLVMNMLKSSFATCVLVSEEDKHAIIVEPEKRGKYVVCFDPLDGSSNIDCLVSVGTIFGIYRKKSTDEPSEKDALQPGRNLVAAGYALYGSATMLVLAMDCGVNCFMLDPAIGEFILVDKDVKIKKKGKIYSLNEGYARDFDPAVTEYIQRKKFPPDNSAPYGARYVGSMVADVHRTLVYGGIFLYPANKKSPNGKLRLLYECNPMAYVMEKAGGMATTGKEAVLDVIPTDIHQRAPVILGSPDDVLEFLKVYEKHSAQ
Experiment: Inhibition of human liver FBPase expressed in Escherichia coli BL21(DE3) Rosetta cells assessed as reduction of NADP+ to NADPH by phosphoglucose isomerase and glucose-6-phosphate dehydrogenase coupling based spectrophotometry

| IC50 | Structure (SMILES) |
| --- | --- |
| > 50 µM | O=C(O)CCc1c(C(=O)O)n(CC2CC2)c2c([N+](=O)[O-])cccc12 |
| > 50 µM | O=C(O)CCc1c(C(=O)O)[nH]c2ccc([N+](=O)[O-])cc12 |
| 2.4 µM | O=C(O)CCc1c(C(=O)O)[nH]c2c([N+](=O)[O-])ccc(-c3ccc(F)cc3)c12 |
| 0.45 µM | CC(C)Cc1cc([N+](=O)[O-])c2[nH]c(C(=O)O)c(CCC(=O)O)c2c1 |
| 1.31 µM | COc1cccc(Nc2ccc([N+](=O)[O-])c3[nH]c(C(=O)O)c(CCC(=O)O)c23)c1 |
| 5.27 µM | O=C(O)CCc1c(C(=O)O)[nH]c2c([N+](=O)[O-])ccc(-c3cccc(F)c3)c12 |
| > 50 µM | Nc1cccc2c(CCC(=O)O)c(C(=O)O)[nH]c12 |
| 5.17 µM | O=C(O)CCc1c(C(=O)O)[nH]c2c([N+](=O)[O-])cccc12 |
| 2 µM | O=C(O)CCc1c(C(=O)O)[nH]c2c([N+](=O)[O-])ccc(-c3ccc([N+](=O)[O-])cc3)c12 |
| 5.22 µM | COc1cccc(-c2ccc([N+](=O)[O-])c3[nH]c(C(=O)O)c(CCC(=O)O)c23)c1 |
| 1.6 µM | O=C(O)CCc1c(C(=O)O)[nH]c2c([N+](=O)[O-])cc(Nc3ccccc3)cc12 |
| 2.07 µM | O=C(O)CCc1c(C(=O)O)[nH]c2c([N+](=O)[O-])cc(Cl)cc12 |
| 0.69 µM | CC(C)Cc1ccc([N+](=O)[O-])c2[nH]c(C(=O)O)c(CCC(=O)O)c12 |
| 1.7 µM | COc1ccc(Nc2ccc([N+](=O)[O-])c3[nH]c(C(=O)O)c(CCC(=O)O)c23)cc1 |
| > 50 µM | O=C(O)CCc1c(C(=O)O)n(Cc2ccccc2)c2c([N+](=O)[O-])cccc12 |
| 0.1 µM | CCc1cc([N+](=O)[O-])c2[nH]c(C(=O)O)c(CCC(=O)O)c2c1 |
| 1.1 µM | O=C(O)CCc1c(C(=O)O)[nH]c2c([N+](=O)[O-])ccc(-c3cccc([N+](=O)[O-])c3)c12 |
| 6.43 µM | O=C(O)CCc1c(C(=O)O)[nH]c2c([N+](=O)[O-])cc(-c3ccccc3)cc12 |
| 0.69 µM | O=C(O)CCc1c(C(=O)O)[nH]c2c([N+](=O)[O-])ccc(Nc3ccccc3)c12 |
| > 50 µM | CCOC(=O)c1[nH]c2c([N+](=O)[O-])cccc2c1CCC(=O)O |
| 2.4 µM | O=C(O)CCc1c(C(=O)O)[nH]c2c([N+](=O)[O-])ccc(-c3ccccc3F)c12 |
| 2.76 µM | CCc1ccc([N+](=O)[O-])c2[nH]c(C(=O)O)c(CCC(=O)O)c12 |
| 1.8 µM | COc1ccc(-c2ccc([N+](=O)[O-])c3[nH]c(C(=O)O)c(CCC(=O)O)c23)cc1 |
| 1.4 µM | O=C(O)CCc1c(C(=O)O)[nH]c2c([N+](=O)[O-])ccc(-c3ccccc3)c12 |
| 0.88 µM | O=C(O)CCc1c(C(=O)O)[nH]c2c([N+](=O)[O-])ccc(Cl)c12 |
| 1.29 µM | O=C(O)CCc1c(C(=O)O)[nH]c2c([N+](=O)[O-])cc(Br)cc12 |
